# Results from patent US6737383B1, “Herbicidal oxadiazolidines” (priority 1999, dated 2004).
# What was measured:
# crabgrass = assay: Test B pre/postemergence crabgrass; type: in vivo, Digitaria sanguinalis
# Method in brief: (§1)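 Herbicidal effect was estimated by eye on a ten-point control scale after plants spent twelve to sixteen days in a greenhouse following soil or foliar treatment. Foliar sprays targeted plants at one to four leaves; all doses were formulated in a non-phytotoxic solvent with surfactant.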
# smallflower flatsedge = assay: Test B flood test smallflower flatsedge; type: in vivo, Cyperus difformis
# Method in brief: (§2)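 Flood test on plants grown to the 2-leaf stage; treated plants kept in greenhouse twelve to sixteen days, then visually rated against controls on a 0 (no effect) to 10 (complete control) scale.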
# cocklebur = assay: Test B pre/postemergence cocklebur; type: in vivo, Xanthium strumarium
# Method in brief: as §1
# duck salad = assay: Test B flood test duck salad; type: in vivo, Heteranthera limosa
# Method in brief: as §2
# purple nutsedge = assay: Test B pre/postemergence purple nutsedge; type: in vivo, Cyperus rotundus
# Method in brief: as §1
# corn = assay: Test B pre/postemergence corn; type: in vivo, Zea mays
# Method in brief: as §1
# rice = assay: Test B flood test rice; type: in vivo, Oryza sativa
# Method in brief: as §2
# rape = assay: Test B pre/postemergence rape; type: in vivo, Brassica napus
# Method in brief: as §1
# blackgrass = assay: Test B pre/postemergence blackgrass; type: in vivo, Alopecurus myosuroides
# Method in brief: as §1
# pigweed = assay: Test B pre/postemergence pigweed; type: in vivo, Amaranthus retroflexus
# Method in brief: as §1
# soybean = assay: Test B pre/postemergence soybean; type: in vivo, Glycine max
# Method in brief: as §1
# surinam grass = assay: Test B pre/postemergence surinam grass; type: in vivo, Brachiaria decumbens
# Method in brief: as §1
# sugar beet = assay: Test B pre/postemergence sugar beet; type: in vivo, Beta vulgaris
# Method in brief: as §1
# bamyardgrass = assay: Test B flood test barnyardgrass; type: in vivo, Echinochloa crus-galli
# Method in brief: as §2
# wheat = assay: Test B pre/postemergence wheat; type: in vivo, Triticum aestivum
# Method in brief: as §1
# giant foxtail = assay: Test B pre/postemergence giant foxtail; type: in vivo, Setaria faberii
# Method in brief: as §1
# [1] = Preemergence, Rate 62 g/ha, scale of 0 to 10 where 0 is no effect and 10 is complete control
# [2] = Preemergence, Rate 250 g/ha, scale of 0 to 10 where 0 is no effect and 10 is complete control
# [3] = Preemergence, Rate 500 g/ha, scale of 0 to 10 where 0 is no effect and 10 is complete control
# [4] = Rate 62 g/ha, Postemergence, scale of 0 to 10 where 0 is no effect and 10 is complete control
# [5] = Rate 125 g/ha, Postemergence, scale 0 to 10
# [6] = Rate 125 g/ha, Preemergence, scale of 0 to 10 where 0 is no effect and 10 is complete control
# [7] = Rate 500 g/ha, Postemergence, scale 0 to 10, 0 no effect, 10 complete control
# [8] = Rate 62 g/ha, headed Pre-emergence (flood test species), scale 0 to 10 (0 no effect, 10 complete control)
# [9] = Rate 125 g/ha, Pre-emergence, flood test species, scale 0 to 10 where 0 is no effect and 10 is complete control
# [10] = Rate 250 g/ha, Pre-emergence, flood-test species, scale 0 to 10, 0 is no effect, 10 is complete control
# [11] = Rate 500 g/ha, Pre-emergence, flood test species, scale 0 to 10 (0 no effect, 10 complete control)
smiles,measurement,setting,value
CCc1ccc(N(C(=O)n2oc(=O)n(-c3ccccc3C)c2=O)C(C)C)cc1 [Compound 230],Crabgrass plant response rating,crabgrass; [1],1
same,Crabgrass plant response rating,crabgrass; [2],7
same,"Plant response rating, Crabgrass",crabgrass; [3],9
same,Crabgrass plant response rating,crabgrass; [4],0
same,Crabgrass plant response rating,crabgrass; [5],0
same,Crabgrass plant response rating,crabgrass; [6],1
same,"Plant response rating (0 to 10; 0 is no effect, 10 is complete control), Crabgrass","crabgrass; Rate 250 g/ha, Postemergence",0
same,Crabgrass plant response rating,crabgrass; [7],2
same,S. Flatsedge plant response rating,smallflower flatsedge; [8],0
same,S. Flatsedge plant response rating,smallflower flatsedge; [9],0
same,S. Flatsedge plant response rating,smallflower flatsedge; [10],0
same,S. Flatsedge plant response rating,smallflower flatsedge; [11],0
same,Cocklebur plant response rating,cocklebur; [1],0
same,Cocklebur plant response rating,cocklebur; [2],0
same,"Plant response rating, Cocklebur",cocklebur; [3],0
same,Cocklebur plant response rating,cocklebur; [4],0
same,Cocklebur plant response rating,cocklebur; [5],0
same,Cocklebur plant response rating,cocklebur; [6],0
same,"Plant response rating (0 to 10; 0 is no effect, 10 is complete control), Cocklebur","cocklebur; Rate 250 g/ha, Postemergence",0
same,Cocklebur plant response rating,cocklebur; [7],0
same,Ducksalad plant response rating,duck salad; [8],0
same,Ducksalad plant response rating,duck salad; [9],0
same,Ducksalad plant response rating,duck salad; [10],0
same,Ducksalad plant response rating,duck salad; [11],0
same,Nutsedge plant response rating,purple nutsedge; [1],0
same,Nutsedge plant response rating,purple nutsedge; [2],0
same,"Plant response rating, Nutsedge",purple nutsedge; [3],0
same,Nutsedge plant response rating,purple nutsedge; [4],0
same,Nutsedge plant response rating,purple nutsedge; [5],0
same,Nutsedge plant response rating,purple nutsedge; [6],0
same,"Plant response rating (0 to 10; 0 is no effect, 10 is complete control), Nutsedge","purple nutsedge; Rate 250 g/ha, Postemergence",0
same,Nutsedge plant response rating,purple nutsedge; [7],0
same,Corn plant response rating,corn; [1],0
same,Corn plant response rating,corn; [2],0
same,"Plant response rating, Corn",corn; [3],0
same,Corn plant response rating,corn; [4],0
same,Corn plant response rating,corn; [5],0
same,Corn plant response rating,corn; [6],0
same,"Plant response rating (0 to 10; 0 is no effect, 10 is complete control), Corn","corn; Rate 250 g/ha, Postemergence",0
same,Corn plant response rating,corn; [7],0
same,Rice plant response rating,rice; [8],0
same,Rice plant response rating,rice; [9],0
same,Rice plant response rating,rice; [10],0
same,Rice plant response rating,rice; [11],0
same,Rape plant response rating,rape; [1],0
same,Rape plant response rating,rape; [2],0
same,"Plant response rating, Rape",rape; [3],0
same,Rape plant response rating,rape; [4],0
same,Rape plant response rating,rape; [5],0
same,Rape plant response rating,rape; [6],0
same,"Plant response rating (0 to 10; 0 is no effect, 10 is complete control), Rape","rape; Rate 250 g/ha, Postemergence",0
same,Rape plant response rating,rape; [7],0
same,Blackgrass plant response rating,blackgrass; [1],0
same,Blackgrass plant response rating,blackgrass; [2],0
same,"Plant response rating, Blackgrass",blackgrass; [3],2
same,Blackgrass plant response rating,blackgrass; [4],0
same,Blackgrass plant response rating,blackgrass; [5],0
same,Blackgrass plant response rating,blackgrass; [6],0
same,"Plant response rating (0 to 10; 0 is no effect, 10 is complete control), Blackgrass","blackgrass; Rate 250 g/ha, Postemergence",0
same,Blackgrass plant response rating,blackgrass; [7],0
same,Redroot pigweed plant response rating,pigweed; [1],0
same,Redroot pigweed plant response rating,pigweed; [2],0
same,"Plant response rating, Redroot pigweed",pigweed; [3],0
same,Redroot pigweed plant response rating,pigweed; [4],0
same,Redroot pigweed plant response rating,pigweed; [5],0
same,Redroot pigweed plant response rating,pigweed; [6],0
same,"Plant response rating (0 to 10; 0 is no effect, 10 is complete control), Redroot pigweed","pigweed; Rate 250 g/ha, Postemergence",0
same,Redroot pigweed plant response rating,pigweed; [7],0
same,Soybean plant response rating,soybean; [1],0
same,Soybean plant response rating,soybean; [2],0
same,"Plant response rating, Soybean",soybean; [3],0
same,Soybean plant response rating,soybean; [4],0
same,Soybean plant response rating,soybean; [5],0
same,Soybean plant response rating,soybean; [6],0
same,"Plant response rating (0 to 10; 0 is no effect, 10 is complete control), Soybean","soybean; Rate 250 g/ha, Postemergence",4
same,Soybean plant response rating,soybean; [7],5
same,B. signalgrass plant response rating,surinam grass; [1],0
same,B. signalgrass plant response rating,"surinam grass; Preemergence, Rate 250 g/ha, scale 0 to 10, 0 is no effect, 10 is complete control",0
same,"Plant response rating, B. signalgrass",surinam grass; [3],0
same,B. signalgrass plant response rating,surinam grass; [4],0
same,B. signalgrass plant response rating,"surinam grass; Rate 125 g/ha, Postemergence, scale 0 (no effect) to 10 (complete control)",0
same,B. signalgrass plant response rating,surinam grass; [6],0
same,"Plant response rating (0 to 10; 0 is no effect, 10 is complete control), B. signalgrass","surinam grass; Rate 250 g/ha, Postemergence",0
same,B. signalgrass plant response rating,surinam grass; [7],0
same,Sugarbeets plant response rating,sugar beet; [1],0
same,Sugarbeets plant response rating,sugar beet; [2],0
same,"Plant response rating, Sugarbeets",sugar beet; [3],0
same,Sugarbeets plant response rating,sugar beet; [4],0
same,Sugarbeets plant response rating,sugar beet; [5],0
same,Sugarbeets plant response rating,sugar beet; [6],0
same,"Plant response rating (0 to 10; 0 is no effect, 10 is complete control), Sugarbeets","sugar beet; Rate 250 g/ha, Postemergence",0
same,Sugarbeets plant response rating,sugar beet; [7],0
same,Barnyardgrass plant response rating,bamyardgrass; [8],0
same,Barnyardgrass plant response rating,bamyardgrass; [9],0
same,Barnyardgrass plant response rating,bamyardgrass; [10],0
same,Barnyardgrass plant response rating,bamyardgrass; [11],0
same,Wheat plant response rating,wheat; [1],0
same,Wheat plant response rating,wheat; [2],0
same,"Plant response rating, Wheat",wheat; [3],0
same,Wheat plant response rating,wheat; [4],0
same,Wheat plant response rating,wheat; [5],0
same,Wheat plant response rating,wheat; [6],0
same,"Plant response rating (0 to 10; 0 is no effect, 10 is complete control), Wheat","wheat; Rate 250 g/ha, Postemergence",0
same,Wheat plant response rating,wheat; [7],0
same,Giant foxtail plant response rating,giant foxtail; [1],2
same,Giant foxtail plant response rating,giant foxtail; [2],8
same,"Plant response rating, Giant foxtail",giant foxtail; [3],9
same,Giant foxtail plant response rating,giant foxtail; [4],0
same,Giant foxtail plant response rating,giant foxtail; [5],0
same,Giant foxtail plant response rating,giant foxtail; [6],2
same,"Plant response rating (0 to 10; 0 is no effect, 10 is complete control), Giant foxtail","giant foxtail; Rate 250 g/ha, Postemergence",0
same,Giant foxtail plant response rating,giant foxtail; [7],1
